Values of other authors in PubChem BioAssay AID1259409 (Chemical Carcinogenesis Research Information System (CCRIS), 2018).

System: rodent chemically induced tumor inhibition, incidence and multiplicity
Experiment: CCRIS tumor inhibitor studies

C=C(C)[C@@H]1CC[C@]2(C(=O)O)CC[C@]3(C)[C@H](CC[C@@H]4[C@@]5(C)CC[C@H](O)C(C)(C)[C@@H]5CC[C@]43C)[C@@H]12
tumour outcome (control, treated, inhibition, significance) (Carcinogen: 7,12-DIMETHYLBENZ[A]ANTHRACENE, 57-97-6, Dose [Inhibitor]: 0, 5 UMOL 2/WK BEGINNING 1 WK POST CARCINOGEN TREATMENT AND CONTINUING FOR 18 WK (STUDY DURATION: 19 WK), Route [Inhibitor]: DERMAL, Species: MOUSE, Strain/Sex: ICR/FEMALE, Target Tissue: Type of Lesion: SKIN: PAPILLOMA, Dose [Carcinogen]: 50 UG ONCE, Promoter: 12-O-TETRADECANOYLPHORBOL-13-ACETATE, 16561-29-8): 100%, 65%, 35%, not calculated

CCCCC[C@H](O)/C=C/[C@@H]1[C@@H](C/C=C\CCCC(=O)O)[C@@H](O)C[C@H]1O
tumour outcome (control, treated, inhibition, significance) (Carcinogen: ETHYL METHANESULFONATE, 62-50-0, Dose [Inhibitor]: 0, 1 MG/KG IN SESAME OIL 2/WK FOR 8 WK ADMINISTERED CONCOMITANTLY WITH CARCINOGEN TREATMENT (STUDY DURATION: 44 WK), Route [Inhibitor]: INTRAMUSCULAR, Species: RAT, Strain/Sex: WISTAR/FEMALE, Target Tissue: Type of Lesion: MAMMARY GLAND: CARCINOMA, Dose [Carcinogen]: 0.001 MOLAR SOLUTION IN TAP WATER FOR 12 WK, Promoter: NONE USED): 100%, 61%, 39%, p<0.01
tumour outcome (control, treated, inhibition, significance) (Carcinogen: ETHYL METHANESULFONATE, 62-50-0, Dose [Inhibitor]: 0, 1 MG/KG IN SESAME OIL 2/WK FOR 8 WK BEGINNING POST CARCINOGEN TREATMENT (STUDY DURATION: 44 WK), Route [Inhibitor]: INTRAMUSCULAR, Species: RAT, Strain/Sex: WISTAR/FEMALE, Target Tissue: Type of Lesion: MAMMARY GLAND: CARCINOMA, Dose [Carcinogen]: 0.001 MOLAR SOLUTION IN TAP WATER FOR 12 WK, Promoter: NONE USED): 100%, 88%, 12%, not significant

Cc1c(C)c(N)c(C)c(C)c1N
outcome (Carcinogen: 7,12-DIMETHYLBENZ[A]ANTHRACENE, 57-97-6, Dose [Inhibitor]: 0.1% IN POWDERED DIET BEGINNING 1 WK POST CARCINOGEN DOSE FOR 51 WK (STUDY DURATION: 52 WK), Route [Inhibitor]: ORAL, Species: RAT, Strain/Sex: SPRAGUE-DAWLEY/FEMALE, Target Tissue: Type of Lesion: EAR DUCT: BENIGN TUMOR, Dose [Carcinogen]: 2.5 MG/100 G BW IN 0.5 ML SESAME OIL ONCE, Promoter: NONE USED): 7/19 (37%), 5/17 (29%), 20, not calculated
tumour outcome (control, treated, inhibition, significance) (Carcinogen: 7,12-DIMETHYLBENZ[A]ANTHRACENE, 57-97-6, Dose [Inhibitor]: 0.1% IN POWDERED DIET BEGINNING 1 WK POST CARCINOGEN DOSE FOR 51 WK (STUDY DURATION: 52 WK), Route [Inhibitor]: ORAL, Species: RAT, Strain/Sex: SPRAGUE-DAWLEY/FEMALE, Target Tissue: Type of Lesion: MAMMARY GLAND: CARCINOMA, Dose [Carcinogen]: 2.5 MG/100 G BW IN 0.5 ML SESAME OIL ONCE, Promoter: NONE USED): 6/19 (32%), 6/17 (35%), -12%, not calculated
tumour outcome (control, treated, inhibition, significance) (Carcinogen: 7,12-DIMETHYLBENZ[A]ANTHRACENE, 57-97-6, Dose [Inhibitor]: 0.1% IN POWDERED DIET BEGINNING 1 WK POST CARCINOGEN DOSE FOR 51 WK (STUDY DURATION: 52 WK), Route [Inhibitor]: ORAL, Species: RAT, Strain/Sex: SPRAGUE-DAWLEY/FEMALE, Target Tissue: Type of Lesion: MAMMARY GLAND: FIBROADENOMA, Dose [Carcinogen]: 2.5 MG/100 G BW IN 0.5 ML SESAME OIL ONCE, Promoter: NONE USED): 15/19 (79%), 4/17 (24%), 71%, p<0.01

C=C(NC(=O)Cc1ccccc1OC)C(=O)O
outcome (Carcinogen: X-RAY, Dose [Inhibitor]: 0, 100 MG/KG 15 MIN PRIOR TO EACH IRRADIATION (STUDY DURATION: 14 MO), Route [Inhibitor]: INTRAPERITONEAL, Species: MOUSE, Strain/Sex: C57BL/MALE AND FEMALE, Target Tissue: Type of Lesion: THYMUS GLAND: LYMPHOMA, Dose [Carcinogen]: 175 RADS 1/WK FOR 4 WK (250 KV X-RAYS, PHILLIPS RT 200/250), Promoter: NONE USED): 45%, 45%, 0%, not significant at 5 mo; 93%, >90%, <3%, not calculated
outcome (Carcinogen: X-RAY, Dose [Inhibitor]: 0, 200 MG/KG 15 MIN PRIOR TO SECOND AND FOURTH IRRADIATION (STUDY DURATION 14 MO), Route [Inhibitor]: INTRAPERITONEAL, Species: MOUSE, Strain/Sex: C57BL/MALE AND FEMALE, Target Tissue: Type of Lesion: THYMUS GLAND: LYMPHOMA, Dose [Carcinogen]: 175 RADS 1/WK FOR 4 WK (250 KV X-RAYS, PHILLIPS RT 200/250), Promoter: NONE USED): 45%, 0%, 100%, not calculated at 5 mo; 93%, 40%, 57%, not calculated at 8 mo
outcome (Carcinogen: X-RAY, Dose [Inhibitor]: 0, 400 MG/KG ONCE 15 MIN PRIOR TO FIRST IRRADIATION (STUDY DURATION: 14 MO), Route [Inhibitor]: INTRAPERITONEAL, Species: MOUSE, Strain/Sex: C57BL/MALE AND FEMALE, Target Tissue: Type of Lesion: THYMUS GLAND: LYMPHOMA, Dose [Carcinogen]: 175 RADS 1/WK FOR 4 WK (250 KV X-RAYS, PHILLIPS RT 200/250), Promoter: NONE USED): 45%, 10%, 78%, not calculated at 5 mo; 93%, >90%, <3%, not calculated at 8 mo

Cc1ncc(C[n+]2csc(CCO)c2C)c(N)n1
tumour outcome (control, treated, inhibition, significance) (Carcinogen: 7,12-DIMETHYLBENZ[A]ANTHRACENE, 57-97-6, Dose [Inhibitor]: 0.2% IN DRINKING WATER DAILY STARTING 4 WK BEFORE CARCINOGEN TREATMENT AND CONTINUING FOR DURATION OF STUDY (STUDY DURAT, Route [Inhibitor]: ORAL, Species: MOUSE, Strain/Sex: 101/MALE, FEMALE, Target Tissue: Type of Lesion: SKIN: PAPILLOMA, Dose [Carcinogen]: 225 UG IN 0.15 ML ACETONE ONCE, Promoter: CROTON OIL, 8001-28-3): 17/19 (89%), 18/20 (90%), -1%, not calculated
tumour outcome (control, treated, inhibition, significance) (Carcinogen: BENZO[A]PYRENE, 50-32-8, Dose [Inhibitor]: 2.5 MG 2/WK FOR 20 WK STARTING 4 WK BEFORE START OF CARCINOGEN TREATMENT PLUS 0.2% IN DRINKING WATER (STUDY DURATION: 22, Route [Inhibitor]: SUBCUTANEOUS, ORAL, Species: MOUSE, Strain/Sex: 101/MALE, FEMALE, Target Tissue: Type of Lesion: SKIN: PAPILLOMA, Dose [Carcinogen]: 0.2 ML OF 0.25% 2/WK FOR 20 WK, Promoter: NONE USED): 13/18 (72%), 5/8 (63%), 13%, not calculated
tumour outcome (control, treated, inhibition, significance) (Carcinogen: BENZO[A]PYRENE, 50-32-8, Dose [Inhibitor]: 2.5 MG 2/WK FOR 20 WK STARTING 4 WK BEFORE START OF CARCINOGEN TREATMENT PLUS 0.2% IN DRINKING WATER (STUDY DURATION: 37, Route [Inhibitor]: SUBCUTANEOUS, ORAL, Species: MOUSE, Strain/Sex: 101/MALE, FEMALE, Target Tissue: Type of Lesion: SKIN: MALIGNANT TUMOR, Dose [Carcinogen]: 0.2 ML OF 0.25% 2/WK FOR 20 WK, Promoter: NONE USED): 12/18 (67%), 5/8 (63%), 6%, not calculated
tumour outcome (control, treated, inhibition, significance) (Carcinogen: ETHYLNITROSOUREA, 759-73-9, Dose [Inhibitor]: 0, 500 MG/KG MIXED WITH STARCH 1:20 (WEIGHT: WEIGHT) IN DIET 5 D/WK FOR 10 MO (STUDY DURATION: 10 MO), Route [Inhibitor]: ORAL, Species: RAT, Strain/Sex: ALBINO/MALE,FEMALE, Target Tissue: Type of Lesion: BRAIN: GLIOMA OR ASTROCYTOMA, Dose [Carcinogen]: 75 MG/KG IN SALINE BY INTRAVENOUS INJECTION ONCE 21 D AFTER CONCEPTION): 21/40 (52%), 14/20 (70%), -35%, not calculated
tumour outcome (control, treated, inhibition, significance) (Carcinogen: ETHYLNITROSOUREA, 759-73-9, Dose [Inhibitor]: 0, 500 MG/KG MIXED WITH STARCH 1:20 (WEIGHT: WEIGHT) IN DIET 5 D/WK FOR 10 MO (STUDY DURATION: 10 MO), Route [Inhibitor]: ORAL, Species: RAT, Strain/Sex: ALBINO/MALE,FEMALE, Target Tissue: Type of Lesion: KIDNEY: MESENCHYMAL TUMOR OR ADENOCARCINOMA, Dose [Carcinogen]: 75 MG/KG IN SALINE BY INTRAVENOUS INJECTION ONCE 21 D AFTER CONCEPTION): 11/40 (28%), 10/20 (50%), -79%, not calculated
tumour outcome (control, treated, inhibition, significance) (Carcinogen: ETHYLNITROSOUREA, 759-73-9, Dose [Inhibitor]: 0, 500 MG/KG MIXED WITH STARCH 1:20 (WEIGHT: WEIGHT) IN DIET 5 D/WK FOR 10 MO (STUDY DURATION: 10 MO), Route [Inhibitor]: ORAL, Species: RAT, Strain/Sex: ALBINO/MALE,FEMALE, Target Tissue: Type of Lesion: NERVOUS SYSTEM: SCHWANNOMA, Dose [Carcinogen]: 75 MG/KG IN SALINE BY INTRAVENOUS INJECTION ONCE 21 D AFTER CONCEPTION): 19/40 (48%), 5/20 (25%), 48%, not calculated
tumour outcome (control, treated, inhibition, significance) (Carcinogen: ETHYLNITROSOUREA, 759-73-9, Dose [Inhibitor]: 0, 500 MG/KG MIXED WITH STARCH 1:20 (WEIGHT: WEIGHT) IN DIET 5 D/WK FOR 10 MO (STUDY DURATION: 10 MO), Route [Inhibitor]: ORAL, Species: RAT, Strain/Sex: ALBINO/MALE,FEMALE, Target Tissue: Type of Lesion: SPINAL CORD: TUMOR, Dose [Carcinogen]: 75 MG/KG IN SALINE BY INTRAVENOUS INJECTION ONCE 21 D AFTER CONCEPTION): 17/40 (42%), 4/20 (20%), 52%, not calculated

O=C(O)CNC(=O)c1ccccc1
tumour outcome (control, treated, inhibition, significance) (Carcinogen: N-BUTYL-N-(4-HYDROXYBUTYL)NITROSAMINE, 3817-11-6, Dose [Inhibitor]: 5% DIET DAILY FOR 34 WK STARTING AT COMPLETION OF CARCINOGEN TREATMENT (STUDY DURATION: 38 WK), Route [Inhibitor]: ORAL, Species: RAT, Strain/Sex: F344/MALE, Target Tissue: Type of Lesion: URINARY BLADDER: PAPILLOMA, Dose [Carcinogen]: 0.01% IN DRINKING WATER FOR 4 WK, Promoter: NONE USED): 33%, 23%, 30%, not significant
